From patent publication US20200038513A1, “MODULATORS OF FAK PROTEOLYSIS AND ASSOCIATED METHODS OF USE” (ARVINAS OPERATIONS, INC., priority 2018, published 2020)

How the values were obtained:
MDA-MB-231 cells [1] = experiment: Wound healing assay; assay type: cell-based, human; conditions: 24 hours
Protocol: MDA-MB-231 cells were maintained in complete growth medium (RPMI-1640) at 37° C. supplied with 5% CO2. Cells (1×10^6) were split in to a 12-well plate. After 24 hours an even wound was created across each well using a sterile 10 μL pipette tip and the cells were washed with warm phosphate-buffered solution (PBS) twice to remove any floating or dead cells. This time point was considered as 0 hours and cells were incubated in fresh medium containing exemplary compound or control as indicated, for 24 hours. Images of wounded area were captured at 0 hour and after 24 hours using a camera attached to a light microscope. Images were analyzed by ImageJ software and wounded area was quantified. The area of the remaining wound at 24 hours was subtracted from the area of the wound at 0 hour. Percent wound healing (migration) was calculated and data presented as a bar graph using Prism 7.0 (GraphPad). Differences between groups were analyzed by Welch's t-test and considered significant when p<0.05.
Since Fak is a key regulator of cell motility, exemplary compound 102 was evaluated for its effect on cell migration and invasion. […] Effects on cell migration were analyzed in a wound healing assay using the aggressive and invasive human TNBC cell line MDA-MB-231. […] Wound closure was quantified after 24 hours (FIGS. 13A and 13B).

PC3 cells = experiment: Cell proliferation assay (MTS); assay type: cell-based, human; conditions: 96 h
Protocol: (§1) Cells were seeded in 96-well plates and treated with exemplary compound or control as indicated. At desired time points culture medium was supplemented with […] MTS (Promega) and […] phenazine methosulfate (Sigma) and incubated at 37° C. Mitochondrial reduction of MTS to the formazan derivative was monitored by measuring the medium's absorbance at 490 nm using a Wallac Victor 2 plate reader (Perkin-Elmer Life Sciences). Data analysis and statistics was performed using Prism 7.0 (GraphPad).

MDA-MB-231 cells [2] = experiment: Cell proliferation assay (MTS); assay type: cell-based, human; conditions: 96 hours
Protocol: as §1

set of 468 kinases = experiment: KinomeScan kinase engagement assay (DiscoverX); assay type: binding; conditions: 1000 nM, 403 non-mutant kinases
Protocol: The Kinase engagement assay was performed by DiscoverX assessing binding abilities towards a set of 468 kinases.
Examination of Target Protein Selectivity. To assess the target selectivity of exemplary compound 102 over a large panel of different kinases, a DiscoverX KINOMEScan was performed. KINOMEScan measures compound binding to individual kinases via the compounds ability to compete/displace the kinases from an immobilized support that non-selectively binds kinase active sites. […] It appears that the slight loss in inhibitory potency due to linker and VHL ligand attachment results in greater selectivity.

Fak = Fak (Homo sapiens, UniProt Q05397); experiment: Kinase activity assay (Reaction Biology Corp.); assay type: biochemical; design: purchased Reaction Biology Corp. (contract assay service); conditions: 10 μM ATP, n = 2
Protocol: Reactions were carried out at 10 μM ATP. IC50 values were calculated using Prism 7.0 (GraphPad).

S6RP = experiment: Western blot of S6RP total levels in MDA-MB-231 cells; assay type: cell-based, human; conditions: 10% FBS, varying concentrations
Protocol: If not indicated otherwise, cells were seeded and grown to 80% confluency and were treated with compound or control for 24 hours. Subsequently, the growth media was removed and the cells lysed by the addition of lysis buffer (25 mM Tris, pH 7.4; 1% NP-40, 0.25% deoxycholate, 1 mM sodium vanadate, 10 mM sodium fluoride, 10 mM sodium pyrophosphate, 20 mM β-glycerophosphate and 1× complete EDTA-free protease inhibitor cocktail (Roche)). After 20 minutes the mixture was spun down at 16,000×g for 10 minutes at 4° C. to pellet insoluble materials. Protein concentration of supernatants were determined via BCA assay (Thermo Fisher) before addition of NuPAGE sample buffer containing 5% β-Me and boiling at 95° C. for 10 minutes. Equal amounts of protein were subjected to SDS-PAGE and subsequent electrophoretic transfer onto nitrocellulose membrane. Rabbit antibodies were purchased from Cell Signaling: Fak (3285), p-Fak (3283), p-Paxillin (2541), p-Akt (S473)(4060), GAPDH (2118), Androgen Receptor (5153), p-Src(Y527)(2105), p-S6RP (2215). Mouse antibodies were purchased from Cell Signaling: tubulin (3873), S6RP (2317). […] Immunoblots were developed using enhanced chemiluminescence and visualized using a Bio-Rad Chemi-Doc MP Imaging System and quantitated with Image Lab v.5.2.1 software (Bio-Rad Laboratories). […]

Sequence of Fak (Q05397 whole entry): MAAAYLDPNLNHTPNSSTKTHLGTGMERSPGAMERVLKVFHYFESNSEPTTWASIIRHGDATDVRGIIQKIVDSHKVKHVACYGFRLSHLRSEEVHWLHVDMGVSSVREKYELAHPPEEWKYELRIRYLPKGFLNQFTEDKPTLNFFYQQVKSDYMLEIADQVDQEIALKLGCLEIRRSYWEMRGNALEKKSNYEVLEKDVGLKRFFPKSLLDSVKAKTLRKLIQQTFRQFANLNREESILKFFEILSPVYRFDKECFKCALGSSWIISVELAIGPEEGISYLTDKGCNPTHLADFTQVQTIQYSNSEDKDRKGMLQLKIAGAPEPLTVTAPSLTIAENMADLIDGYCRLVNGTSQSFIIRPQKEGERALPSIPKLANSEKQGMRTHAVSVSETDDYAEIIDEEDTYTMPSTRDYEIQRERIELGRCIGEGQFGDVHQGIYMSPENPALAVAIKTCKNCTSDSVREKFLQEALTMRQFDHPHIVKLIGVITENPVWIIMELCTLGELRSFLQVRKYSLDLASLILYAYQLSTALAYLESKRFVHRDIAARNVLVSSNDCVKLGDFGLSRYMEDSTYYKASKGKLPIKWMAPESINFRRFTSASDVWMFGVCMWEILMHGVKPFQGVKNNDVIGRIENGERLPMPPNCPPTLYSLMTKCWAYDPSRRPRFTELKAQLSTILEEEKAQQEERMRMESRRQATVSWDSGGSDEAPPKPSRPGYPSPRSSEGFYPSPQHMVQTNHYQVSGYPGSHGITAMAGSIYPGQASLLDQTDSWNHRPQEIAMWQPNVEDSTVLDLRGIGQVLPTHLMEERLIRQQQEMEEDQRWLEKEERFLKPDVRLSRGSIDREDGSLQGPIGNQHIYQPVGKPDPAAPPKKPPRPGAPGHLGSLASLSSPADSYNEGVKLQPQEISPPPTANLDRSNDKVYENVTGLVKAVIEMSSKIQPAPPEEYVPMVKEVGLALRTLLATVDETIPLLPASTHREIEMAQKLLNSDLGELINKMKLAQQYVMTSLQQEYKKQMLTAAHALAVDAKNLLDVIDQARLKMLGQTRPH

Cc1ncsc1-c1ccc(CNC(=O)[C@@H]2C[C@@H](O)CN2C(=O)[C@@H](NC(=O)CCOCCOc2ccc(Nc3ncc(C(F)(F)F)c(NCc4cccc(N(C)S(C)(=O)=O)c4)n3)cc2)C(C)(C)C)cc1 [Compound 102, (2S,4R)-1-((S)-3,3-dimethyl-2-(3-(2-(4-((4-((3-(N-methylmethylsulfonamido)benzyl)amino)-5-(trifluoromethyl)pyrimidin-2-yl)amino)phenoxy)ethoxy)propanamido)butanoyl)-4-hydroxy-N-(4-(4-methylthiazol-5-yl)benzyl)pyrrolidine-2-carboxamide]
reduction of wound healing (MDA-MB-231 cells [1]; 50 nM): 53%
impairment of wound closure (MDA-MB-231 cells [1]; 250 nM): 70%
cell viability or proliferation (in words) (PC3 cells): do not affect cell viability or proliferation within four days
cell viability or proliferation (in words) (MDA-MB-231 cells [2]): do not affect cell viability or proliferation within four days
Number of Hits, S(10) (set of 468 kinases): 7
Selectivity Score, S(1) (set of 468 kinases): 0.002
Selectivity Score, S(10) (set of 468 kinases): 0.017
Selectivity Score, S(35) (set of 468 kinases): 0.05
Number of Hits, S(35) (set of 468 kinases; less than 35% of control remaining): 20
IC50 (Fak): 6.5 nM
total S6RP levels (in words) (S6RP): unchanged
